Experimental data from the supplement of paper PMC10307832.

Legend:
Experiment in all cases: relative viability (nuclei count vs DMSO), 5 days (fraction); higher = more cells survive
[1] = compound: C1/C(=C\C2=CC=CS2)/C(=O)/C(=C/C3=CC=CS3)/C1 + Cc1nc(NC(=O)N2CCC[C@H]2C(N)=O)sc1-c1ccnc(C(C)(C)C(F)(F)F)c1 [Alpelisib] (partner 2 µM)
Outline: (§1)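 A single step with final 0.05% Triton X-100, 1% formaldehyde and 1 ug/ml Hoechst fixed the cells and stained nuclei 5 days after treatment. Lung cancer cell lines in 1536-well plates had been treated by pin tool the day after seeding with one drug alone or a fixed anchor-drug dose plus five library-drug doses (not always all listed) in √10 steps, and nuclei were counted on 4× images. Relative viability is the ratio of nuclei in treated wells to nuclei in vehicle wells, taken as the median of duplicate plates.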

TPCA-1 + Tozasertib = compound: C1=CC(=CC=C1C2=CC(=C(S2)NC(=O)N)C(=O)N)F [TPCA-1] + Cc1cc(Nc2cc(N3CCN(C)CC3)nc(Sc3ccc(NC(=O)C4CC4)cc3)n2)n[nH]1 [Tozasertib] (partner 0.1 µM)
Outline: as §1

[2] = compound: C[C@]12O[C@H](C[C@]1(O)CO)n1c3ccccc3c3c4c(c5c6ccccc6n2c5c31)CNC4=O [Lestaurtinib] + CC1(C)CCC(c2ccc(Cl)cc2)=C(CN2CCN(c3ccc(C(=O)NS(=O)(=O)c4ccc(N[C@H](CCN5CCOCC5)CSc5ccccc5)c(S(=O)(=O)C(F)(F)F)c4)cc3)CC2)C1 [Navitoclax] (partner 0.5 µM)
Outline: as §1

Lestaurtinib + AZD7762 = compound: C[C@]12O[C@H](C[C@]1(O)CO)n1c3ccccc3c3c4c(c5c6ccccc6n2c5c31)CNC4=O [Lestaurtinib] + NC(=O)Nc1cc(-c2cccc(F)c2)sc1C(=O)N[C@H]1CCCNC1 [AZD7762] (partner 0.2 µM)
Outline: as §1

Cell Line | relative viability ([1]; first compound 0.2 µM) | relative viability ([1]; first compound 0.6325 µM) | relative viability ([1]; first compound 2 µM) | relative viability ([1]; first compound 6.325 µM) | relative viability ([1]; first compound 20 µM) | relative viability (TPCA-1 + Tozasertib; first compound 0.04 µM) | relative viability (TPCA-1 + Tozasertib; first compound 0.1265 µM) | relative viability (TPCA-1 + Tozasertib; first compound 0.4 µM) | relative viability (TPCA-1 + Tozasertib; first compound 1.265 µM) | relative viability (TPCA-1 + Tozasertib; first compound 4 µM) | relative viability ([2]; first compound 0.005 µM) | relative viability ([2]; first compound 0.01581 µM) | relative viability ([2]; first compound 0.05 µM) | relative viability ([2]; first compound 0.1581 µM) | relative viability ([2]; first compound 0.5 µM) | relative viability (Lestaurtinib + AZD7762; first compound 0.005 µM) | relative viability (Lestaurtinib + AZD7762; first compound 0.01581 µM) | relative viability (Lestaurtinib + AZD7762; first compound 0.05 µM) | relative viability (Lestaurtinib + AZD7762; first compound 0.1581 µM) | relative viability (Lestaurtinib + AZD7762; first compound 0.5 µM)
LK-2 | 0.94 | 1.02 | 0.856 | 1.13 | 0.813 | 0.167 | 0.176 | 0.187 | 0.172 | 0.16 | 1.01 | 0.838 | 0.673 | 0.374 | 0.169 | 0.388 | 0.523 | 0.272 | 0.276 | 0.135
NCI-H2405 | 0.945 | 0.766 | 0.79 | 0.797 | 0.87 | 0.753 | 0.75 | 0.765 | 0.754 | 0.555 | 1 | 0.86 | 0.889 | 0.55 | 0.216 | 0.746 | 0.885 | 0.492 | 0.662 | 0.218
NCI-H2087 | 1.24 | 1.14 | 1.04 | 0.917 | 1.11 | 0.243 | 0.239 | 0.28 | 0.2 | 0.116 | 0.946 | 0.853 | 0.686 | 0.707 | 0.26 | 1.27 | 1.2 | 1.06 | 0.761 | 0.302
NCI-H460 | 0.491 | 0.576 | 0.601 | – | 0.463 | 0.473 | 0.69 | 0.419 | 0.448 | 0.0397 | 1.37 | 1.01 | 0.694 | 0.894 | 0.544 | 0.651 | 0.765 | 0.757 | 1.31 | 0.645
LOU-NH91 | 0.776 | 0.746 | 0.769 | 0.671 | 0.729 | 0.769 | 0.57 | 0.639 | 0.602 | 0.423 | 0.698 | 0.583 | 0.438 | 0.371 | 0.272 | 0.688 | 0.754 | 0.573 | 0.524 | 0.378
NCI-H1651 | 1.11 | 0.899 | 1.03 | – | 0.975 | 0.678 | 0.646 | 0.794 | 0.652 | 0.521 | 1.12 | 1.12 | 0.79 | 1.05 | 0.471 | 0.447 | 0.503 | 0.349 | 0.558 | 0.318
NCI-H441 | 0.819 | 0.832 | 0.719 | 0.578 | 0.737 | 0.946 | 0.632 | 0.506 | 0.379 | 0.28 | 0.48 | 0.575 | 0.571 | 0.448 | 0.313 | 1.17 | 1.39 | 1.04 | 1.01 | 0.743
